Experimental data from PMC10507085, “Pharmacological inhibition of TBK1/IKKε blunts immunopathology in a murine model of SARS-CoV-2 infection” (Nature Communications, 2023).

Key:
[1] = molecular target: T1, DRAK1 (Homo sapiens, UniProt Q9UEE5); assay: KINOMEscan competition binding ([…] kinases, […] IDX)
T1 construct: gene STK17A
T1 sequence (Q9UEE5 1-414): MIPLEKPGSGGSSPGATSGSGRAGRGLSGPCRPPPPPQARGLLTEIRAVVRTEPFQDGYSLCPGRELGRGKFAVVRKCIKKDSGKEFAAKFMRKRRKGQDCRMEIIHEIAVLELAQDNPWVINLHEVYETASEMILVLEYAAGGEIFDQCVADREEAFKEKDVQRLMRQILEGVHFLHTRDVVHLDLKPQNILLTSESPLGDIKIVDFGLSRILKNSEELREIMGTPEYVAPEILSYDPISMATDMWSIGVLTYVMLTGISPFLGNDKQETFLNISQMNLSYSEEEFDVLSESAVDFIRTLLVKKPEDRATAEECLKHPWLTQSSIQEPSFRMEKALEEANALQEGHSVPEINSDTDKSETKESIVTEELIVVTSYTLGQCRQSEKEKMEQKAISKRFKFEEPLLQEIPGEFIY

[2] = molecular target: T2, PIM2 (Homo sapiens, UniProt Q9P1W9); assay: KINOMEscan competition binding ([…] kinases, […] IDX)
T2 sequence (Q9P1W9 whole entry): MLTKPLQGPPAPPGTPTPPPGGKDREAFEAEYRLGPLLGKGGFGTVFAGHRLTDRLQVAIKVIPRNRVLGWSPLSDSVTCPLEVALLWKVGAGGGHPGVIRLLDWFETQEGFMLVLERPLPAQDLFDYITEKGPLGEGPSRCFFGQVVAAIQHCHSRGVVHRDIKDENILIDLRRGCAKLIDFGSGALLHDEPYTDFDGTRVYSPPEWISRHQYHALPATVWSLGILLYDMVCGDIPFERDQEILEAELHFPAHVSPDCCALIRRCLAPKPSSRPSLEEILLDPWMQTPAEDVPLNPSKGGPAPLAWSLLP

[3] = molecular target: T1, DRAK1; assay: biochemical; parameters: KINOMEscan competition binding, DNA-tagged kinase against immobilised ligand, qPCR read-out; details: read-out: Percent Control
[4] = molecular target: T2, PIM2; assay: biochemical; parameters: KINOMEscan competition binding, DNA-tagged kinase against immobilised ligand, qPCR read-out; details: read-out: Percent Control
[5] = molecular target: PKNB(M.tuberculosis) (Mycobacterium tuberculosis, UniProt P9WI81); assay: biochemical; parameters: KINOMEscan competition binding, DNA-tagged kinase against immobilised ligand, qPCR read-out; details: read-out: Percent Control
Chain of PKNB(M.tuberculosis) (P9WI81 whole entry): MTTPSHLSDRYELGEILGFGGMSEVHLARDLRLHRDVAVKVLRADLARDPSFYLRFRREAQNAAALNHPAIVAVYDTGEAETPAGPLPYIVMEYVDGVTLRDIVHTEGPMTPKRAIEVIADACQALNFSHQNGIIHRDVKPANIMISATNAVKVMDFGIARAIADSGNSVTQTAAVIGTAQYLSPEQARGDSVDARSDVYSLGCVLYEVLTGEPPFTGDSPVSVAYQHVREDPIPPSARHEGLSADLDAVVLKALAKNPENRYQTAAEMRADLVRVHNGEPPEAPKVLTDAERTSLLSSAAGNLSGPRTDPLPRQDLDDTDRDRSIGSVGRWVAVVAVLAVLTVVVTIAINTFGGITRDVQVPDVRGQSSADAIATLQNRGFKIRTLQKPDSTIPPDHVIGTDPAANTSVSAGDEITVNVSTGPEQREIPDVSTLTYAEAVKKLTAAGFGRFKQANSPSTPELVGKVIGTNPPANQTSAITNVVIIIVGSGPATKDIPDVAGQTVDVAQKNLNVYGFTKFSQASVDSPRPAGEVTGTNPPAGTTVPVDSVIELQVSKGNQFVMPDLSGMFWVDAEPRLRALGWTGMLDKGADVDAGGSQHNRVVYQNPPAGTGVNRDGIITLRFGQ

[6] = molecular target: T3, PFPK5(P.falciparum) (Plasmodium falciparum, UniProt P61075); assay: biochemical; parameters: KINOMEscan competition binding, DNA-tagged kinase against immobilised ligand, qPCR read-out; details: read-out: Percent Control
T3 construct: gene CRK2

[7] = molecular target: CAMK2D (Homo sapiens, UniProt Q13557); assay: biochemical; parameters: KINOMEscan competition binding, DNA-tagged kinase against immobilised ligand, qPCR read-out; details: read-out: Percent Control
Chain of CAMK2D (Q13557 whole entry): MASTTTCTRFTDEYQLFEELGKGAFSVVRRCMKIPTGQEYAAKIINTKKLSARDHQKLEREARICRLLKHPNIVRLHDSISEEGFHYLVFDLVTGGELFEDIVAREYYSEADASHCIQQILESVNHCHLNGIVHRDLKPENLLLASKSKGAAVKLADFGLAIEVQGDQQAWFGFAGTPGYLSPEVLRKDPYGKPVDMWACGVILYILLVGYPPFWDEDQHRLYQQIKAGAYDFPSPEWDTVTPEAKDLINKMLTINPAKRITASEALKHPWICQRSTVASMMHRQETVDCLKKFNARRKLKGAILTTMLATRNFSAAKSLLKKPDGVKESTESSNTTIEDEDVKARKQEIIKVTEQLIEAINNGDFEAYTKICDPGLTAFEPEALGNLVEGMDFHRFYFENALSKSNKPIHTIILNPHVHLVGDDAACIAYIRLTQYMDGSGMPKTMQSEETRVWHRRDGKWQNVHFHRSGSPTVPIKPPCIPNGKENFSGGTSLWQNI
Description: (§1) The KINOMEscan^TM kinase assays[65] were performed by Eurofins DiscoverX Corporation. For each kinase, the assay relies on the ability of the tested compound to compete against an immobilised ligand for binding to the DNA-tagged kinase. RT-qPCR is then used to measure the quantity of kinase molecules bound to the immobilised ligand, which is decreased if the tested compound competed with the kinase-ligand interaction. An 11-point 3-fold serial dilution of IDX compound was prepared in 100% DMSO at 100× final test concentration and subsequently diluted to 1× in the assay. […]

[8] = molecular target: DYRK1A (Homo sapiens, UniProt Q13627); assay: biochemical; parameters: KINOMEscan competition binding, DNA-tagged kinase against immobilised ligand, qPCR read-out; details: read-out: Percent Control
Description: as §1

[9] = molecular target: ERN1 (Homo sapiens, UniProt O75460); assay: biochemical; parameters: KINOMEscan competition binding, DNA-tagged kinase against immobilised ligand, qPCR read-out; details: read-out: Percent Control
Description: as §1

[10] = molecular target: IGF1R (Homo sapiens, UniProt P08069); assay: biochemical; parameters: KINOMEscan competition binding, DNA-tagged kinase against immobilised ligand, qPCR read-out; details: read-out: Percent Control
Chain of IGF1R (P08069 whole entry): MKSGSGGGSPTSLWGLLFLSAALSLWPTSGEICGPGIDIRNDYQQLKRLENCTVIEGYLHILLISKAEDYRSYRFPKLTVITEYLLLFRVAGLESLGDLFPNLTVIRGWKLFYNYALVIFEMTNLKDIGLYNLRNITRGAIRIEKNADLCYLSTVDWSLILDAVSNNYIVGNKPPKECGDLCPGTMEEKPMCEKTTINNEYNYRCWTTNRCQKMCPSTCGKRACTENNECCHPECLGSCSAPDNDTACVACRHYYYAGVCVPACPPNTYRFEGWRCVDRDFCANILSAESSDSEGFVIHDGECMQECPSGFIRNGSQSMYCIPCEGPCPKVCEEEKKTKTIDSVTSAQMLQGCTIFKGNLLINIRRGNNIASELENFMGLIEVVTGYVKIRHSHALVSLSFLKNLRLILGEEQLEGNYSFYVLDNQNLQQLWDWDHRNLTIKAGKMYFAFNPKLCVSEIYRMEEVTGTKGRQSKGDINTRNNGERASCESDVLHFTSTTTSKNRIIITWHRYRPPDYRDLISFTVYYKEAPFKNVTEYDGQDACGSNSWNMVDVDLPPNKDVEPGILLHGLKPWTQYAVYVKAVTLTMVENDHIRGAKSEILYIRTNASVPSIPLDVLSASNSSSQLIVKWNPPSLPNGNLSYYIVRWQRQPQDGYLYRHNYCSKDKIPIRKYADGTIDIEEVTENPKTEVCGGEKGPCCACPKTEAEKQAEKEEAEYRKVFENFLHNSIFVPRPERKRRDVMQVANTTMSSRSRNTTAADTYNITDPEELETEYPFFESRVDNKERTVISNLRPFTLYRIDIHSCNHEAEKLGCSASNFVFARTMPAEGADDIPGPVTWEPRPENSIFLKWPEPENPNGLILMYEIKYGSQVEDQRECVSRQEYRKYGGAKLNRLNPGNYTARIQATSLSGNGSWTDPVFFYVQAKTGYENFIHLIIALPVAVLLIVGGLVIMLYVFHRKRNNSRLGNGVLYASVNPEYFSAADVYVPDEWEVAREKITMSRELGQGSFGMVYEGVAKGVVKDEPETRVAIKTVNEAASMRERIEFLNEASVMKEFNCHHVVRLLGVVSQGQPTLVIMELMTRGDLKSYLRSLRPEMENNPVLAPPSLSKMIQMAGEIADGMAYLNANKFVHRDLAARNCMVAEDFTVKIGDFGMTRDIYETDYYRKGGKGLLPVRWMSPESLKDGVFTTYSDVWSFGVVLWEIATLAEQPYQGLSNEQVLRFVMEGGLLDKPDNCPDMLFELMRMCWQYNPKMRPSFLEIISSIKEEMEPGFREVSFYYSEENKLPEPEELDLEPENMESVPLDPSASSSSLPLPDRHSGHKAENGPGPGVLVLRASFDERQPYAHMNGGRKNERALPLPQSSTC
Description: as §1

[11] = molecular target: LIMK1 (Homo sapiens, UniProt P53667); assay: biochemical; parameters: KINOMEscan competition binding, DNA-tagged kinase against immobilised ligand, qPCR read-out; details: read-out: Percent Control
Chain of LIMK1 (P53667 whole entry): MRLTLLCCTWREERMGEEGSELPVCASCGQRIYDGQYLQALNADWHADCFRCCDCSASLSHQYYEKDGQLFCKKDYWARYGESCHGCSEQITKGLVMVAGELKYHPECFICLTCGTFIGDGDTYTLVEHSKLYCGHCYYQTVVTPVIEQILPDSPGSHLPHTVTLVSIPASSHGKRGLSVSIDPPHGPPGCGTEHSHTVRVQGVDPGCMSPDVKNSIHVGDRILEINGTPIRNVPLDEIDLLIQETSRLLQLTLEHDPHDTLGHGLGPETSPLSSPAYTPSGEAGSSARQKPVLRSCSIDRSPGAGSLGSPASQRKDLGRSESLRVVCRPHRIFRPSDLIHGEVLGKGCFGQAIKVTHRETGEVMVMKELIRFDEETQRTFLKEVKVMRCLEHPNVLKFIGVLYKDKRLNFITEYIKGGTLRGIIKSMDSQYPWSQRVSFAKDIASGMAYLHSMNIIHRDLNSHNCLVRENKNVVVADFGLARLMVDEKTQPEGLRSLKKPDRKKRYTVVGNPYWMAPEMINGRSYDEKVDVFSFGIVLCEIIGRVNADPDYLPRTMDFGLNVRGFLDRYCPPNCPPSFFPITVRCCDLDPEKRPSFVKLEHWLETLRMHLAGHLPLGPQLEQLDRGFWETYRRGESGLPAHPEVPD
Description: as §1

[12] = molecular target: MAPK11 (Homo sapiens, UniProt Q15759); assay: biochemical; parameters: KINOMEscan competition binding, DNA-tagged kinase against immobilised ligand, qPCR read-out; details: read-out: Percent Control
Description: as §1

[13] = molecular target: PIK3C2B (Homo sapiens, UniProt O00750); assay: biochemical; parameters: KINOMEscan competition binding, DNA-tagged kinase against immobilised ligand, qPCR read-out; details: read-out: Percent Control
Chain of PIK3C2B (O00750 whole entry): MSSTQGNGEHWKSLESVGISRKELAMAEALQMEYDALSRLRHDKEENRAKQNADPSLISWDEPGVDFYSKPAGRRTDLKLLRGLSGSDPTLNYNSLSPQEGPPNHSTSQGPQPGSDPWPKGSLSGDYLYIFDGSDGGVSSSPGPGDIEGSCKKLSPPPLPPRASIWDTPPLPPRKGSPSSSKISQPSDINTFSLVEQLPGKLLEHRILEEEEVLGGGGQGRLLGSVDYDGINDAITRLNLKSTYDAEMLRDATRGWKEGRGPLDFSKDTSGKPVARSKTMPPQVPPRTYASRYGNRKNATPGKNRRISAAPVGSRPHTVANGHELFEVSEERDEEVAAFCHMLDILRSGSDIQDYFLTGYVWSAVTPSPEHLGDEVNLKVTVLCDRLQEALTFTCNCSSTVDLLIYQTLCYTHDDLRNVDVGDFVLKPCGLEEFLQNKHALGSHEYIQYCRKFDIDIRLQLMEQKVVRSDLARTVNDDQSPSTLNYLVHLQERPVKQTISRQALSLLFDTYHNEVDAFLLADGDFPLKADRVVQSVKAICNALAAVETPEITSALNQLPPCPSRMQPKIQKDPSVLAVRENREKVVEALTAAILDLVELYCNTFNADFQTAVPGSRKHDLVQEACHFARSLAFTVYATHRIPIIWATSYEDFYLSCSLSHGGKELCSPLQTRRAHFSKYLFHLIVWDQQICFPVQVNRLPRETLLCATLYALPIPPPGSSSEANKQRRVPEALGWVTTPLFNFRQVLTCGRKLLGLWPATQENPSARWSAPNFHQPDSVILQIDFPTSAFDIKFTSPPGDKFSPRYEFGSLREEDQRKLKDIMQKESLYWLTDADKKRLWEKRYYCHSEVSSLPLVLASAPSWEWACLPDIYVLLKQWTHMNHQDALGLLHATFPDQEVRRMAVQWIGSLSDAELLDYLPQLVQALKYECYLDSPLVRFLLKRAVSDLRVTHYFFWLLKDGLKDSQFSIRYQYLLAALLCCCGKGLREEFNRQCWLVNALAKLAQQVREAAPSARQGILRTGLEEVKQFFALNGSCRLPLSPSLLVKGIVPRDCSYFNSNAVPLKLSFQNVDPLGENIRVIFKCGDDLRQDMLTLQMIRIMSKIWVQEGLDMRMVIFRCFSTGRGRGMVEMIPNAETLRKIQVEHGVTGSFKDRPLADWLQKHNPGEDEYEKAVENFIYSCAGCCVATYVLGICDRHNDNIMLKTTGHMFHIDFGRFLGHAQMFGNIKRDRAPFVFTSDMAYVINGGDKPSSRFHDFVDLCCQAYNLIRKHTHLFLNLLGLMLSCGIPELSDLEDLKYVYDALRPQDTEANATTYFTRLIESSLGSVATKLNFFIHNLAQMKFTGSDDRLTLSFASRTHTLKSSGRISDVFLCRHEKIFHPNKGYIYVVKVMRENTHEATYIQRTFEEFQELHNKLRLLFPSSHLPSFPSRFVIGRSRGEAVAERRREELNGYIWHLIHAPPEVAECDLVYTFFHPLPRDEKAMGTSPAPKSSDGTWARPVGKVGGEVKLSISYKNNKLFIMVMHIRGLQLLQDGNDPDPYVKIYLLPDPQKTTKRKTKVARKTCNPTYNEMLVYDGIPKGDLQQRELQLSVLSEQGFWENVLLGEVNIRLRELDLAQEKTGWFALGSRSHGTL
Description: as §1

[14] = molecular target: PLK4 (Homo sapiens, UniProt O00444); assay: biochemical; parameters: KINOMEscan competition binding, DNA-tagged kinase against immobilised ligand, qPCR read-out; details: read-out: Percent Control
Description: as §1

[15] = molecular target: STK32B (Homo sapiens, UniProt Q9NY57); assay: biochemical; parameters: KINOMEscan competition binding, DNA-tagged kinase against immobilised ligand, qPCR read-out; details: read-out: Percent Control
Description: as §1

[16] = molecular target: TTK (Homo sapiens, UniProt P33981); assay: biochemical; parameters: KINOMEscan competition binding, DNA-tagged kinase against immobilised ligand, qPCR read-out; details: read-out: Percent Control
Description: as §1

[17] = molecular target: T1, DRAK1; assay: biochemical; parameters: KINOMEscan competition binding, DNA-tagged kinase against immobilised ligand, qPCR read-out

Compound: Oc1ccc(C2=Cc3ccc(O)cc3OC2)cc1 [compound 1, idronoxil]
- KINOMEscan competition binding (403 kinases, 10 μM IDX) [1]: broadly a poor kinase inhibitor, only binding its top two targets (PIM2 and DRAK1) in the micromolar range
- KINOMEscan competition binding (403 kinases, 10 μM IDX) [2]: broadly a poor kinase inhibitor, only binding its top two targets (PIM2 and DRAK1) in the micromolar range
- remaining binding at 10 µM [3]: 4.3%
- remaining binding at 10 µM [4]: 2.6%
- remaining binding at 10 µM [5]: 76%
- remaining binding at 10 µM [6]: 95%
- remaining binding at 10 µM [7]: 84%
- remaining binding at 10 µM [8]: 34%
- remaining binding at 10 µM [9]: 66%
- remaining binding at 10 µM [10]: 84%
- remaining binding at 10 µM [11]: 89%
- remaining binding at 10 µM [12]: 85%
- remaining binding at 10 µM [13]: 83%
- remaining binding at 10 µM [14]: 88%
- remaining binding at 10 µM [15]: 100%
- remaining binding at 10 µM [16]: 83%
- Kd [17]: 1200 nM
